Experimental data taken from PMC9907720 (Antiviral research, 2022).
Read-outs that look alike come from different tables or passages of the source.

Experiments:
AD169^R [1] = experiment: Cell pre-treatment wash / no wash infection assay; assay type: cell-based, Human cytomegalovirus; conditions: cells pre-treated, AD169^R 30 mins at 4°C; MBX-4992 10μM, heparin 50μg/ml; 24hpi
VZV Ellen = experiment: Herpes virus panel, VZV CPE; assay type: cell-based, Varicella-Zoster virus; conditions: HFF
Zika virus = experiment: Other viral pathogens, Zika virus; assay type: cell-based; conditions: data not shown
CMV IE1 protein = experiment: Western blot of IE1 protein in AD169^R-infected NHDFs; assay type: cell-based, Human cytomegalovirus; conditions: AD169^R-infected NHDF, 24hpi; MBX-4992 1-10 μM, ganciclovir 5 μM, convallotoxin 0.01 μM
respiratory syncytial = experiment: Other viral pathogens, respiratory syncytial virus; assay type: cell-based; conditions: data not shown
GpCMV 22122 = experiment: Herpes virus panel, GpCMV qPCR; assay type: cell-based, Guinea pig cytomegalovirus; conditions: GpCMV 22122, GP Lung cells
HSV-2 G = experiment: Herpes virus panel, HSV-2 CPE; assay type: cell-based, Herpes simplex virus 2; conditions: HFF
BCBL-1 = BCBL-1 cells, HHV-8 assay
influenza A H1N1 = experiment: Other viral pathogens, influenza A H1N1; assay type: cell-based; conditions: data not shown
hepatitis B = experiment: Other viral pathogens, hepatitis B; assay type: cell-based; conditions: data not shown
[2] = tested on: AD169^R and TB40/E strains; experiment: Infectivity assay, AD169^R and TB40/E in NHDF and ARPE-19; assay type: cell-based, Human cytomegalovirus; conditions: read-out: IC50 values (range), NHDF and ARPE-19 cells, 24hpi
MOLT-3 = conditions: MOLT-3, HHV-6B assay
GP Lung = GP Lung cells, GpCMV assay
yellow fever = assay type: cell-based
HHV-8 BCBL-1 = experiment: Herpes virus panel, HHV-8 qPCR; assay type: cell-based, Human herpes virus 8; conditions: HHV-8 BCBL-1, BCBL-1 cells
HSV-1 E-377 = experiment: Herpes virus panel, HSV-1 CPE; assay type: cell-based, Herpes simplex virus 1; conditions: HSV-1 E-377, HFF
dengue = experiment: Other viral pathogens, dengue; assay type: cell-based; conditions: data not shown
HCMV AD169 = experiment: Herpes virus panel, HCMV AD169 CPE; assay type: cell-based, Human cytomegalovirus; conditions: HCMV AD169, HFF
Akata = Akata cells, EBV assay
MCMV Smith = experiment: Herpes virus panel, MCMV qPCR; assay type: cell-based, Murine cytomegalovirus; conditions: MEF
MEF = conditions: MCMV assay
AD169^R [3] = experiment: Virus pre-incubation wash / no wash infection assay; assay type: cell-based, Human cytomegalovirus; conditions: MBX-4992 pre-incubated with virus, 24hpi
HHV-6B Z29 = experiment: Herpes virus panel, HHV-6B qPCR; assay type: cell-based, Human herpes virus 6B; conditions: HHV-6B Z29, MOLT-3, qPCR
EBV Akata = experiment: Herpes virus panel, EBV qPCR; assay type: cell-based, Epstein-Barr virus; conditions: Akata cells
HCMV GDGr K17 (GCV^R) = assay type: cell-based, Human cytomegalovirus; conditions: HFF, CPE
AD169^R [4] = experiment: Infectivity assay, AD169^R infection of NHDF; assay type: cell-based, Human cytomegalovirus; conditions: AD169^R-infected NHDF, 24hpi
TB40/E [5] = experiment: Infectivity assay, TB40/E infection of NHDF; assay type: cell-based, Human cytomegalovirus; conditions: TB40/E-infected NHDF, 24hpi
TB40/E [6] = experiment: Infectivity assay, TB40/E infection of ARPE-19; assay type: cell-based, Human cytomegalovirus; conditions: TB40/E-infected ARPE-19, 24hpi
AD169^IE2-YFP = experiment: High-content screening / dose response assay, AD169^IE2-YFP infection of HFF; assay type: cell-based, Human cytomegalovirus; conditions: read-out: anti-CMV activity IC50, secondary validation assays
AD169^R [7] = experiment: Infectivity assay, AD169^R infection of ARPE-19; assay type: cell-based, Human cytomegalovirus; conditions: AD169^R-infected ARPE-19, 24hpi

heparin [reference compound]
virus infection, compound present during infection (AD169^R [1]): significantly inhibited virus during infection

Cc1nc(Nc2ccc(NC(=O)c3ccco3)cc2)cc(N2CCCC2)n1 [MBX-4992]
CC50 (HFF; HCMV AD169 assay): > 150 µM
CC50 (HFF; HSV-1 assay): 60.6 µM
CC50 (HFF; HSV-2 assay): > 150 µM
CC50 (HFF; VZV assay): 139 µM
IC50 (VZV Ellen): > 30 µM
antiviral activity (Zika virus): did not exhibit activity
IE1 expression (Western blot) (CMV IE1 protein): decrease in IE1 expression
antiviral activity (respiratory syncytial): did not exhibit activity
IC50 (GpCMV 22122): > 30 µM
IC50 (HSV-2 G): > 150 µM
CC50 (BCBL-1): > 100 µM
antiviral activity (influenza A H1N1): did not exhibit activity
antiviral activity (hepatitis B): did not exhibit activity
IC50 [2]: 1.9 to 4.8 µM
CC50 (MOLT-3): > 100 µM
CC50 (GP Lung): 119 µM
antiviral activity (yellow fever): did not exhibit activity
IC50 (HHV-8 BCBL-1): 10 µM
IC50 (HSV-1 E-377): > 30 µM
antiviral activity (dengue): did not exhibit activity
IC50 (HCMV AD169): 1.7 µM
CC50 (Akata): > 100 µM
IC50 (MCMV Smith): 4.5 µM
CC50 (MEF): > 150 µM
decrease of virus infection, virus pre-incubated then washed (AD169^R [3]): ~ 25%
IC50 (HHV-6B Z29): 43.7 µM
IC50 (EBV Akata): 30.9 µM
IC50 (HCMV GDGr K17 (GCV^R)): 1.8 µM
virus infection, compound present during infection (AD169^R [1]): significantly inhibited virus during infection

Cc1nc(Nc2ccc(NC(=O)c3ccco3)cc2)cc(-n2cccn2)n1 [MBXC-4302]
IC50 (AD169^R [4]): 3 µM
IC50 (TB40/E [5]): ~4.5 µM
IC50 (TB40/E [6]): ~4.5 µM
IC50 (AD169^IE2-YFP): 3.2 µM
IC50 (AD169^R [7]): 5.8 µM

Nc1nc(O)c2ncn(COC(CO)CO)c2n1 [GCV, ganciclovir]
IE1 expression (Western blot) (CMV IE1 protein): did not impact IE1 expression

C[C@@H]1O[C@@H](O[C@H]2CC[C@]3(C=O)[C@H]4CC[C@]5(C)[C@@H](C6=CC(=O)OC6)CC[C@]5(O)[C@@H]4CC[C@]3(O)C2)[C@H](O)[C@H](O)[C@H]1O [convallatoxin]
IE1 expression (Western blot) (CMV IE1 protein): inhibited IE1 expression
